The text below walks through data of the supplement of paper PMC6045584.

± gives the standard deviation of the averaged measurements.

Compound in one experiment: C=CCn1c(=O)c2cnc(Nc3ccc(N4CCN(C)CC4)cc3)nc2n1-c1cccc(C(C)(C)O)n1 [MK-1775]
Nature of the experiment: surviving fraction relative to DMSO-only wells; higher = less growth inhibition. The following applies: exposure time: 5 days. Summed up: (§1)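 Luminescence normalised to the median of DMSO-only wells defines surviving fraction, with viability read by CellTiter-Glo. Signal was recorded after 10 minutes at room temperature, once log-phase tumour cell lines seeded at 250–500 cells per well in 384-well plates had spent 24 hours settling and then five days under continuous exposure to inhibitors at 0.5, 1, 5, 10, 50, 100, 500 and 1000 nM.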

Compound in another experiment: Cc1c(N)nc([C@H](CC(N)=O)NC[C@H](N)C(N)=O)nc1C(=O)N[C@H](C(=O)N[C@H](C)[C@@H](O)[C@H](C)C(=O)N[C@H](C(=O)NCCc1nc(-c2nc(C(=O)NCCC[S+](C)C)cs2)cs1)[C@@H](C)O)[C@@H](OC1OC(CO)C(O)C(O)C1OC1OC(CO)C(O)C(OC(N)=O)C1O)c1cnc[nH]1 [BLEOMYCIN]
Described as above. The following applies: exposure time: 5 days. Summed up: as §1

Compound in another experiment: CC/C(=C(\c1ccc(O)cc1)c1ccc(OCCN(C)C)cc1)c1ccccc1 [AFIMOXIFENE]
Nature of the experiment: area under dose-response curve of surviving fraction (unscaled, Aref=0) (surviving fraction x log10(nM)); higher = more resistant. The following applies: exposure time: 5 days; dose range 0.5-1000 nM. Summed up:
(§2)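 Tumour cell lines in 384-well plates were exposed to eight inhibitor concentrations, from 0.5 to 1000 nM, for five days, and viability was read by CellTiter-Glo luminescence in three screens per line. Signals were normalised to DMSO-only wells, and 3-parameter logistic regression in the drc R package fitted dose-response survival curves to the surviving fractions. Area under the curve is given as the unscaled activity area. That area is taken over log10 dose with Aref = 0.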

Compound in a further experiment: Cc1cn(-c2cc(NC(=O)c3ccc(C)c(Nc4nccc(-c5cccnc5)n4)c3)cc(C(F)(F)F)c2)cn1 [NILOTINIB]
The experiment is described as above. As to conditions: exposure time: 5 days; dose range 0.5-1000 nM. Summed up: as §2

Compound in another experiment: Cn1ncnc1[C@H]1c2n[nH]c(=O)c3cc(F)cc(c23)N[C@@H]1c1ccc(F)cc1 [BMN-673]
The experiment is described as above. As to conditions: exposure time: 5 days; dose range 0.5-1000 nM. Summed up:
as §2

Turning to HCC38 BREAST, the surviving fraction amounted to 1.33 ± 0.27 with MK-1775 (0.5 nM); 1.23 ± 0.048 with MK-1775 (1 nM); 1.33 ± 0.15 in the experiment with MK-1775 (5 nM); 1.16 ± 0.072 with MK-1775 (10 nM); 0.773 ± 0.24 in the experiment with MK-1775 (50 nM); 0.491 ± 0.065 in the experiment with MK-1775 (100 nM). Also, the surviving fraction was 0.0837 ± 0.006 with MK-1775 (500 nM); 0.069 ± 0.013 in the experiment with MK-1775 (1000 nM); 0.725 ± 0.19 in the experiment with BLEOMYCIN (0.5 nM); 0.725 ± 0.085 in the experiment with BLEOMYCIN (1 nM); 0.793 ± 0.22 with BLEOMYCIN (5 nM); 0.776 ± 0.18 with BLEOMYCIN (10 nM). The surviving fraction with BLEOMYCIN (50 nM) worked out at 0.91 ± 0.23; with BLEOMYCIN (100 nM) it was 0.781 ± 0.11; with BLEOMYCIN (500 nM), 0.697 ± 0.14; with BLEOMYCIN (1000 nM), 0.498 ± 0.046. In addition, the “area under dose-response curve” value in the experiment with AFIMOXIFENE was 3.66; in the experiment with NILOTINIB, 2.77; with BMN-673, 2.

Take HMLE3 BREAST: the surviving fraction with MK-1775 (0.5 nM) was determined as 0.955 ± 0.013; with MK-1775 (1 nM), 0.985 ± 0.066; in the experiment with MK-1775 (5 nM), 1.04 ± 0.071; with MK-1775 (10 nM) it was 0.999 ± 0.02; in the experiment with MK-1775 (50 nM), 0.992 ± 0.065; with MK-1775 (100 nM) it was 0.888 ± 0.061. For the same test system, the surviving fraction with MK-1775 (500 nM) stood at 0.448 ± 0.058; with MK-1775 (1000 nM) it was 0.168 ± 0.026; with BLEOMYCIN (0.5 nM), 0.873 ± 0.098; with BLEOMYCIN (1 nM), 0.892 ± 0.032; with BLEOMYCIN (5 nM) it was 0.858 ± 0.085; with BLEOMYCIN (10 nM), 0.907 ± 0.046. Also, the surviving fraction came to 0.933 ± 0.044 with BLEOMYCIN (50 nM), 0.967 ± 0.055 with BLEOMYCIN (100 nM), 0.956 ± 0.042 with BLEOMYCIN (500 nM) and 0.864 ± 0.064 with BLEOMYCIN (1000 nM). The entries for the “area under dose-response curve” value in the experiment with AFIMOXIFENE, in the experiment with NILOTINIB and with BMN-673 were 3.71, 3.97 and 2.43, respectively.

With G292 BONE, the surviving fraction with MK-1775 (0.5 nM) amounted to 0.974 ± 0.034; in the experiment with MK-1775 (1 nM), 0.946 ± 0.011; in the experiment with MK-1775 (5 nM), 0.997 ± 0.018; in the experiment with MK-1775 (10 nM), 1.03 ± 0.02; with MK-1775 (50 nM) it was 0.961 ± 0.032; with MK-1775 (100 nM), 0.821 ± 0.021. In addition, the surviving fraction worked out at 0.289 ± 0.014 with MK-1775 (500 nM); 0.216 ± 0.0088 with MK-1775 (1000 nM); 0.912 ± 0.048 in the experiment with BLEOMYCIN (0.5 nM); 0.887 ± 0.0095 in the experiment with BLEOMYCIN (1 nM); 0.801 ± 0.052 with BLEOMYCIN (5 nM); 0.741 ± 0.067 with BLEOMYCIN (10 nM). Moreover, the surviving fraction with BLEOMYCIN (50 nM) was found to be 0.553 ± 0.027; with BLEOMYCIN (100 nM) it was 0.474 ± 0.02; with BLEOMYCIN (500 nM) it was 0.315 ± 0.017; in the experiment with BLEOMYCIN (1000 nM) it was 0.276 ± 0.0065. Besides, the “area under dose-response curve” value with AFIMOXIFENE amounted to 3.18; in the experiment with NILOTINIB, 3.44; with BMN-673, 2.57.

Consider HS578T BREAST, for which the surviving fraction in the experiment with MK-1775 (0.5 nM) stood at 0.828 ± 0.085; with MK-1775 (1 nM), 0.84 ± 0.11; with MK-1775 (5 nM), 0.872 ± 0.087; with MK-1775 (10 nM), 0.782 ± 0.1; with MK-1775 (50 nM) it was 0.559 ± 0.091; in the experiment with MK-1775 (100 nM), 0.354 ± 0.035. Moreover, the surviving fraction in the experiment with MK-1775 (500 nM) amounted to 0.204 ± 0.0082; with MK-1775 (1000 nM), 0.128 ± 0.0087; with BLEOMYCIN (0.5 nM) it was 0.759 ± 0.12; with BLEOMYCIN (1 nM), 0.774 ± 0.11; with BLEOMYCIN (5 nM), 0.842 ± 0.043; in the experiment with BLEOMYCIN (10 nM) it was 0.783 ± 0.071. Besides, the surviving fraction with BLEOMYCIN (50 nM) was determined as 0.746 ± 0.074; with BLEOMYCIN (100 nM), 0.596 ± 0.1; with BLEOMYCIN (500 nM) it was 0.364 ± 0.021; with BLEOMYCIN (1000 nM), 0.359 ± 0.033. For the same test system, the “area under dose-response curve” value turned out to be 3.68 with AFIMOXIFENE, 2.81 with NILOTINIB and 2.94 in the experiment with BMN-673.

Regarding HS57T BREAST, the surviving fraction with MK-1775 (0.5 nM) stood at 0.969 ± 0.04; with MK-1775 (1 nM), 1.04 ± 0.017; with MK-1775 (5 nM), 1.06 ± 0.06; with MK-1775 (10 nM) it was 0.963 ± 0.029; with MK-1775 (50 nM), 0.597 ± 0.018; with MK-1775 (100 nM) it was 0.336 ± 0.041. Besides, the surviving fraction with MK-1775 (500 nM) stood at 0.134 ± 0.0042; with MK-1775 (1000 nM), 0.098 ± 0.011; in the experiment with BLEOMYCIN (0.5 nM) it was 0.868 ± 0.026; with BLEOMYCIN (1 nM), 0.91 ± 0.11; with BLEOMYCIN (5 nM) it was 0.9263 ± 0.0091; in the experiment with BLEOMYCIN (10 nM), 0.918 ± 0.057. In addition, the surviving fraction is 0.842 ± 0.032 with BLEOMYCIN (50 nM), 0.723 ± 0.034 in the experiment with BLEOMYCIN (100 nM), 0.36 ± 0.041 in the experiment with BLEOMYCIN (500 nM) and 0.225 ± 0.0065 in the experiment with BLEOMYCIN (1000 nM).

Consider HMT3552 BREAST, for which the surviving fraction came out at 1.05 with MK-1775 (0.5 nM); 1.02 in the experiment with MK-1775 (1 nM); 0.977 with MK-1775 (5 nM); 1.01 in the experiment with MK-1775 (10 nM); 0.542 with MK-1775 (50 nM); 0.142 in the experiment with MK-1775 (100 nM). In addition, the surviving fraction with MK-1775 (500 nM) amounted to 0.069; with MK-1775 (1000 nM) it was 0.072; with BLEOMYCIN (0.5 nM), 0.873; with BLEOMYCIN (1 nM), 0.943; with BLEOMYCIN (5 nM) it was 0.9; in the experiment with BLEOMYCIN (10 nM) it was 0.807. Besides, the surviving fraction was 0.55 with BLEOMYCIN (50 nM), 0.299 with BLEOMYCIN (100 nM), 0.15 in the experiment with BLEOMYCIN (500 nM) and 0.182 with BLEOMYCIN (1000 nM). The “area under dose-response curve” value was found to be 3.53 with AFIMOXIFENE, 3.47 with NILOTINIB and 2.34 with BMN-673.

For the test system HCC70 BREAST, the surviving fraction with MK-1775 (0.5 nM) is 1.03 ± 0.065; with MK-1775 (1 nM), 1.02 ± 0.067; with MK-1775 (5 nM) it was 1.09 ± 0.033; in the experiment with MK-1775 (10 nM), 1 ± 0.11; in the experiment with MK-1775 (50 nM), 0.815 ± 0.062; in the experiment with MK-1775 (100 nM) it was 0.281 ± 0.021. The surviving fraction with MK-1775 (500 nM) came to 0.073 ± 0.0076; with MK-1775 (1000 nM) it was 0.0593 ± 0.012; with BLEOMYCIN (0.5 nM), 0.965 ± 0.055; with BLEOMYCIN (1 nM), 1 ± 0.086; with BLEOMYCIN (5 nM) it was 0.935 ± 0.13; in the experiment with BLEOMYCIN (10 nM), 0.981 ± 0.026. In addition, the surviving fraction was found to be 0.835 ± 0.052 in the experiment with BLEOMYCIN (50 nM), 0.746 ± 0.052 with BLEOMYCIN (100 nM), 0.606 ± 0.097 with BLEOMYCIN (500 nM) and 0.47 ± 0.076 with BLEOMYCIN (1000 nM). For the same test system, the “area under dose-response curve” value with AFIMOXIFENE came out at 3.6; with NILOTINIB it was 3.93; with BMN-673, 2.62.
